According to patent publication US20050267016A1, “CD-10 activated prodrug compounds” (priority 2001, published 2005):
Values joined by “and” are separate entries in the source; they are usually repeats but may differ in a detail not shown here. Equal values may be shown once. Read-outs that look alike come from different tables or passages of the source. Marks after values point to notes of the source that are not given here.

Columns and labels:
[1] = test system: Porcine Kidney CD10; experiment: Hydrolysis by purified CD10; format: biochemical; conditions: for % hydrolysis/10 hr: 12.5 μg/mL, 37° C., pH 7.4, product Leu-doxorubicin; for Fraction hydrolyzed relative to standard: standard Suc-βAla-Leu-Ala-Leu-Dox
Method: Reaction products were analyzed by HPLC with fluorescence detection. Rates were essentially linear over the incubation period. The observed product was Leu-doxorubicin.

[2] = test system: LNCaP (prostate carcinoma) cells; conditions: ratio of IC50
Method: (§1) Adherent cells, LNCaP (prostate carcinoma), HT-29 (colon carcinoma) and PC-3 (prostate carcinoma), were cultured in DMEM media containing 10% heat inactivated fetal calf serum (FCS). On the day of the study the cells were detached from the plate with a trypsin solution. The collected cells were washed and resuspended at a concentration of 0.25×10^6 cells/ml in DMEM containing 10% FCS. 100 μl of cell suspension were added to 96 well plates and the plates were incubated for 3 hours to allow the cells to adhere. […] The plates were then incubated for 24 hours, pulsed with 10 μl of a 100 μCi/ml ^3H-thymidine and incubated for an additional 24 hours (total incubation time 48 hours). The plates were harvested using a 96 well Harvester (Packard Instruments) and counted on a Packard Top Count Counter. Four parameter logistic curves were fitted to the ^3H-thymidine incorporation as a function of drug molarity using Prism software to determine IC50 values.
as §1, with “carcinoma), PC-3 (prostate” for “carcinoma), HT-29 (colon”, “and 22 RV1” for “and PC-3”, “with 1:0” for “with 10”
(§2) The effect of two known inhibitors of CD10 on prodrug activity in Ramos, LNCaP and Ball-1 cells was evaluated. The IC50 of Suc-βAla-Ile-Ala-Leu-Dox was determined in the presence of increasing concentration of the CD10 inhibitors, phosphoramidon and thiorphan.

[3] = test system: Ramos cells (CD10pos); experiment: cells; conditions: ratio of IC50
Method: (§3) Suspension cells, BALL-1, Ramos and Namalwa cells were cultured in RPMI media containing 10% heat inactivated fetal calf serum (FCS). On the day of the study, the cells were collected, washed and resuspended at a concentration of 0.5×10^6 cells/ml in RPMI containing 10% FCS. 100 µl of cell suspension was added to 96 well plates. […] Finally 10 μl of a 100 μCi/ml ^3H-thymidine was added per well and the plates were incubated for 24 hours. The plates were harvested using a 96 well Harvester (Packard Instruments) and counted on a Packard Top Count counter. Four parameter logistic curves were fitted to the ^3H-thymidine incorporation as a function of drug molarity using Prism software to determine IC50 values.
as §2

[4] = test system: Namalwa cells (CD10pos); experiment: cells; format: cell-based; conditions: ratio of IC50
Method: as §3

[5] = test system: LNCaP human prostate carcinoma xenografts
Method: LNCaP human prostate carcinoma cells express high levels of CD10 on the surface. Suc-βAla-Leu-Ala-Leu-Dox and Suc-Leu-Ala-Gly-Dox were tested at a single dose level Q7Dx5. […] The mice were weighed and tumors were measured (by caliper) at least once a week prior to start of dosing (Day 0), then twice a week during the study. Immediately before the start of dosing (Study Day −2 to Day 0), mice were randomized to various groups based on the weight of the tumors. […] Mice were euthanized after the tumors reached a cutoff weight of 1.5 g (cancer endpoint), or when mice suffered over 25% weight loss (toxic endpoint). Studies were terminated at Day 60.

[6] = test system: human colon carcinoma (HT-29) xenograft
Source text: Healthy young male nude mice were subcutaneously injected with 5 million of HT-29 cells.

[7] = test system: LNCaP xenografts; experiment: LNCaP xenograft in SCID mice, Q6DX2, equitoxic comparison (Example 27); format: in vivo, C.B-17.SCID mice
Method: All compounds except Suc-βAla-Leu-Ala-Leu-Dox (three levels) were dosed at two levels with the goal to get a dose response for all compounds.
Knowing that the LNCaP tumor bearing nude mice have weight loss, we chose very conservative dose levels for each compound estimated to be well-tolerated equitoxic doses based on earlier studies and SD-MTD results. The high dose level for repeat dosing is usually 80% of their SD-MTD, and the low dose level is 80% of the high dose level. Accordingly, groups of ten male CD17.SCID mice, subcutaneously injected with 2.5 million LNCaP cells, were treated intravenously with the compounds at the levels described in Table 22 at six day intervals for a total of two identical doses (Q6DX2).
LNCaP tumors grew well in SCID mice, but the SCID mice with LNCaP tumor xenografts experienced severe weight loss, as 80% of control mice had more than 25% of weight loss by the end of the study. Nevertheless, the efficacy of different treatments at approximately equitoxic levels were compared based on the time it took for 50% of mice to reach toxic weight loss and the total numbers of mice with toxic weight loss at the end of study.

[8] = test system: Parental CHO cells; experiment: Conversion to Leu-Dox or Gly-Dox in cell supernatants, parental CHO; format: cell-based, Chinese Hamster; conditions: 10 μM, 37° C.
Method: (§4) To directly ask the question of whether the CD10 expressing cells were capable of cleaving the prodrug, supernatants from CD10 transfected or parental CHO cells treated with the compounds were collected. […] After incubation for 1, 4, and 24 hours, an aliquot of each supernatant was transferred to a 96-well plate and frozen at −20° C. Samples were subsequently thawed and analyzed by reversed phase HPLC (4.6×50 mm 21 TSK Super-ODS column) with fluorescence detection after dilution with 3 volumes of acetonitrile, removal of precipitate by centrifugation, and further dilution into 3 volumes of water. When incubated with Suc-βAla-Leu-Ala-Leu-Dox, there was no detectable metabolism to Leu-Dox observed with the parental cell line while clone 8 (CD10 transfected) generated significant levels of Leu-Dox from Suc-βAla-Leu-Ala-Leu-Dox (Table 27).

[9] = test system: CD10 transfected CHO cells (clone 8); experiment: Conversion to Leu-Dox or Gly-Dox in cell supernatants, CD10 transfected CHO; format: cell-based, Chinese Hamster; conditions: Clone 8 (CD10 transfected), 10 μM, 37° C.
Method: as §4

[10] = test system: LNCaP prostate carcinoma xenograft; experiment: LNCaP prostate carcinoma xenograft in nude mice, Q7D × 3 (Examples 30, 31)
Method: In this model, 7.5 million LNCaP cells resuspended in 0.1 ml of phosphate buffered saline and 0.1 ml of Matrigel (Becton Dickinson) were injected into the side of male nude mice fed on high fat diet.

[11] = mouse, in vivo, iv, 100 umol/kg
Method: (§5) Plasma was obtained from three individual animals in each group at 5 minutes, 1, 2, 4, or 6 hr.

[12] = mouse, in vivo, iv, 100 umol/kg; remark: listed apart in the source
Method: as §5

[13] = Second single dose Maximum Tolerated Dose (SD-MTD) study, 49 days; conditions: mouse, in vivo
Method: In a second single dose Maximum Tolerated Dose (SD-MTD) study, groups of five normal ICR mice were administered intravenous bolus doses of Suc-βAla-Leu-Ala-Leu-Dox. The mice were observed daily for 49 days and body weights measured twice weekly.
In a second single dose Maximum Tolerated Dose (SD-MTD) study, groups of five normal ICR mice were administered intravenous bolus doses of Suc-Leu-Ala-Leu-Dox. The mice were observed daily for 49 days and body weights measured twice weekly.
In a second single dose Maximum Tolerated Dose (SD-MTD) study, groups of five normal ICR mice were administered intravenously bolus doses of Suc-Ile-Ala-Leu-Dox. The mice were observed daily for 49 days and body weights measured twice weekly.
In a second single dose Maximum Tolerated Dose (SD-MTD) study, groups of five normal ICR mice were administered intravenous bolus doses of Suc-βAla-Ile-Ala-Leu-Dox. The mice were observed daily for 49 days and body weights measured twice weekly.

[14] = Pharmacokinetic/metabolism study, single IV bolus; conditions: mice
Method: as §5

[15] = test system: Porcine Kidney CD10; experiment: Hydrolysis by purified CD10; format: biochemical; conditions: release of Leu-pNA vs Leu-Dox, 37° C., pH 7.4
[16] = 40 mg/kg every 7 days for 5 doses
[17] = 67 mg/kg every 7 days for 5 doses

COc1cccc2c1C(=O)c1c(O)c3c(c(O)c1C2=O)C[C@@](O)(C(=O)CO)C[C@@H]3O[C@H]1C[C@H](NC(=O)CNC(=O)[C@H](C)NC(=O)[C@H](CC(C)C)NC(=O)CCC(=O)O)[C@H](O)[C@H](C)O1 [Suc-Leu-Ala-Gly-Dox]
% hydrolysis/10 hr [1]: 0 % hydrolysis/10 hr | Fraction hydrolyzed relative to standard [1]: 0 | Ratio PC-3:LNCaP [2]: 3 | Ratio Ball-1:Ramos [3]: 1 | Ratio Ball-1:Namalwa [4]: 1 | Tumor Weight (mg) D12 ([5]; Dose 110 mg/kg (Table 19), Q7DX5): D12: 795 ± 177 (n = 7) mg | Toxicity (Weight Loss >25%) ([5]; Dose 110 mg/kg (Table 19), Q7DX5, mice affected/total): 1/7 | Tumor Growth Inhibition (% over control) ([5]; mouse, in vivo, 110 mg/kg): 1.4% | % TGI (Day 14, mean) [6, 16]: 4.0% | % TGI (Day 25, median) [6, 16]: 37.2% | Calculated Mean Day of Survival [6, 16]: 39 days and 38.8 ± 6.6 days | Mean Tumor Weight at Day 14 [6, 16]: 704 ± 92 mg | Median Tumor Weight at Day 25 [6, 16]: 952 mg | Number of Long Term Survivors [6, 16]: 1/7 | Toxicity (Weight Loss >20%) [6, 16]: 0/7 | % TGI (Day 14, mean) [6, 17]: 33.2%* | % TGI (Day 25, median) [6, 17]: 43.5% | Calculated Mean Day of Survival [6, 17]: 41 days and 41.3 ± 7.2 days | Mean Tumor Weight at Day 14 [6, 17]: 490 ± 124 mg | Median Tumor Weight at Day 25 [6, 17]: 857 mg | Number of Long Term Survivors [6, 17]: 3/7 | Toxicity (Weight Loss >20%) [6, 17]: 0/7 | % Weight Loss at the end of study ([7]; 110 mg/kg Q6DX2): 80% | Time: 50% Weight Loss ([7]; 110 mg/kg Q6DX2): 33 days | % Weight Loss at the end of study ([7]; 132 mg/kg Q6DX2): 80% | Time: 50% Weight Loss ([7]; 132 mg/kg Q6DX2): 29 days | Conversion rate to Leu-Dox or Gly-Dox [8]: 0.06 mM/h | Percent Conversion/Hour to Leu-Dox or Gly-Dox [8]: 0.57 Percent Conversion/Hour | Conversion rate to Leu-Dox or Gly-Dox [9]: 0.06 mM/h | Percent Conversion/Hour to Leu-Dox or Gly-Dox [9]: 0.61 Percent Conversion/Hour | TGI D22 ([10]; 110 mg/kg (70 Dox equi) Q7D × 3): 39.7±29.5% | Survivor D36 ([10]; 110 mg/kg Q7D × 3, N 8): D36: 6* | Toxic Endpoint ([10]; 110 mg/kg Q7D × 3, >20% body weight loss): 0 | Cancer Endpoint ([10]; 110 mg/kg Q7D × 3, tumors reaching 1000 mg): 2 | AUC(0-t) [11]: 310 µM·h | Plasma AUC0-6 hr of AL-Dox or AG-Dox* [12]: 2.1 µM·h | Plasma AUC0-6 hr of L-Dox or G-Dox* [12]: 0.9 µM·h

COc1cccc2c1C(=O)c1c(O)c3c(c(O)c1C2=O)C[C@@](O)(C(=O)CO)C[C@@H]3O[C@H]1C[C@H](NC(=O)[C@H](CC(C)C)NC(=O)[C@H](C)NC(=O)[C@H](CC(C)C)NC(=O)CCC(=O)O)[C@H](O)[C@H](C)O1 [Suc-Leu-Ala-Leu-Dox]
% hydrolysis/10 hr [1]: 8.3 % hydrolysis/10 hr | Fraction hydrolyzed relative to standard [1]: 0.75 | Ratio PC-3:LNCaP [2]: 50 | Ratio Ball-1:Ramos [3]: ~30 | Ratio Ball-1:Namalwa [4]: ~35 | MTD [13]: 42 mg/kg | MTD ([13]; iv): 71 mg/kg | Time: 50% Weight Loss ([7]; 58.3 mg/kg Q6DX2): 33 days | Time: 100% Weight Loss ([7]; 58.3 mg/kg Q6DX2): 61 days | Time: 50% Weight Loss ([7]; 70.5 mg/kg Q6DX2): 26 days | Time: 100% Weight Loss ([7]; 70.5 mg/kg Q6DX2): 47 days | AUC(0-t) [11]: 634 µM·h | Plasma AUC0-6 hr of AL-Dox or AG-Dox* [12]: 1.6 µM·h | Plasma AUC0-6 hr of L-Dox or G-Dox* [12]: 5.1 µM·h | Major Plasma Metabolite [14]: Leu-Dox

Suc-βAla-Leu-Ala-Leu-pNA
rate of cleavage relative to Suc-βAla-Leu-Ala-Leu-Dox [15]: 590 times
